Results: PubChem BioAssay (NCI)
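Five compound concentrations were applied to cells in 96-well plates for 48 hours; endpoints were derived by simple linear interpolation of the resulting dose-response curve. GI50 is the concentration that inhibits growth by half. TGI: total growth inhibition.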

Key:
Assay in all cases: NCI-60 cell line screen, 48 h
A498 renal = system: A498 renal
KM12 colon = system: KM12 colon
NCI-H460 lung = system: NCI-H460 lung
OVCAR-4 ovarian = system: OVCAR-4 ovarian
SK-MEL-2 melanoma = system: SK-MEL-2 melanoma
SK-MEL-28 melanoma = system: SK-MEL-28 melanoma
SNB-19 CNS = system: SNB-19 CNS
U251 CNS = system: U251 CNS
HCC-2998 colon = system: HCC-2998 colon
SNB-75 CNS = system: SNB-75 CNS

Structure (SMILES)	GI50 (A498 renal) [µM]	TGI (A498 renal) [µM]	GI50 (KM12 colon) [µM]	TGI (KM12 colon) [µM]	GI50 (NCI-H460 lung) [µM]	TGI (NCI-H460 lung) [µM]	GI50 (OVCAR-4 ovarian) [µM]	TGI (OVCAR-4 ovarian) [µM]	GI50 (SK-MEL-2 melanoma) [µM]	TGI (SK-MEL-2 melanoma) [µM]	GI50 (SK-MEL-28 melanoma) [µM]	TGI (SK-MEL-28 melanoma) [µM]	GI50 (SNB-19 CNS) [µM]	TGI (SNB-19 CNS) [µM]	GI50 (U251 CNS) [µM]	TGI (U251 CNS) [µM]	GI50 (HCC-2998 colon) [µM]	TGI (HCC-2998 colon) [µM]	GI50 (SNB-75 CNS) [µM]	TGI (SNB-75 CNS) [µM]
N#CCN/C=C\C(=O)c1ccc(Cl)cc1	38.6	> 100	36.5	> 100	42.1	> 100	76.9	> 100	20	53.9	40.1	> 100	31.4	> 100	70.7	> 100	–	–	–	–
COc1ccc(/C=N\Nc2ccc([N+](=O)[O-])cn2)cc1OC	3.43	59.6	–	–	–	–	–	–	> 100	> 100	> 100	> 100	27	> 100	3.56	74.2	> 100	> 100	2.9	16.4
CC(C)(C)C1CCC2c3c([nH]c4ccccc34)C3C(=O)N(c4ccccc4)C(=O)C3C2C1 (configuration not stated)	–	5.99	–	> 100	–	12.5	–	5.36	–	–	–	18.8	–	22.5	–	11	–	53.5	–	6.04
C=C(Nc1ccc([N+](=O)[O-])cc1[N+](=O)[O-])c1c/c(=N\NC(N)=S)c2ccccc2o1	–	–	–	> 100	–	> 100	–	> 100	–	> 100	–	> 100	–	> 100	–	> 100	–	> 100	–	> 100
CC(C)C1=CC23CCC4C(C)(C(=O)O)CCCC4(C)C2CC1C1C(=O)N(c2ccccc2)C(=O)C13 (configuration not stated)	–	–	–	> 100	–	> 100	–	> 100	–	73.3	–	> 100	–	> 100	–	> 100	–	–	–	> 100
CCN(CC)CCCC(C)N=C(C1=C(C(=NC(C)CCCN(CC)CC)c2cccc(OC)c2)C(=O)NC1=O)c1cccc(OC)c1 (configuration not stated)	1.85	8.38	1.81	6.36	0.841	2.13	1.18	3.49	–	–	–	–	3.71	16.4	1.06	2.5	1.05	2.2	1.65	6.81
CCOC(=O)C(C)(C)Oc1ccc(/C=C/C(=O)c2ccc(Cl)cc2)cc1	–	52.8	–	–	–	> 100	–	32.9	–	39	–	34.7	–	37.7	–	31.9	–	–	–	32.6
Cc1c(C(=O)/C=C/c2ccc(N(C)C)cc2)c(=O)n(-c2ccccc2)n1C	–	> 100	–	> 100	–	> 100	–	–	–	> 100	–	> 100	–	> 100	–	> 100	–	> 100	–	–
CCOC(=N)CC(=O)c1ccccc1	–	> 100	–	> 100	–	–	–	> 100	–	> 100	–	> 100	–	> 100	–	> 100	–	> 100	–	> 100
CCn1c(-c2cc3ccccc3cc2O)nn(C(=O)c2c(Cl)cccc2Cl)c1=S	–	–	> 50	> 50	> 50	> 50	> 50	> 50	9.05	21.1	> 50	> 50	> 50	> 50	19.5	> 50	–	–	42.5	> 50
CSc1n[n+]2c(s1)SCCC2	–	–	–	> 100	–	> 100	–	> 100	–	–	–	> 100	–	> 100	–	> 100	–	> 100	–	> 100
COc1cc(-c2nc(-c3nc4ccccc4[nH]3)cc3c2[nH]c2ccccc23)cc(OC)c1OC	2.43	> 100	3.67	> 100	3.96	> 100	47.4	> 100	3.58	> 100	6.89	> 100	9.45	> 100	4.76	> 100	7.32	> 100	–	–
CCCCCCCCCCCCCCCCCC(=O)OCC(COC(=O)CCCN)OC(=O)CCCN (configuration not stated)	–	–	–	33.5	–	30.7	–	40.9	–	–	–	34.4	–	48	–	40.8	–	35.9	–	> 100
FC(F)(F)C1(Br)C(c2ccccc2)=C1c1ccccc1	–	–	–	29.4	–	80.1	–	54	–	30	–	33.8	–	59.2	–	30.2	–	38.4	–	88.6
COC(=O)Cc1ccc(Oc2cnc3cc(F)c(F)cc3n2)cc1	–	–	> 100	> 100	> 100	> 100	58.3	> 100	> 100	> 100	> 100	> 100	> 100	> 100	> 100	> 100	–	–	> 100	> 100
COc1cccc(/C=C/C(=O)c2ccc(Cl)cc2Cl)c1	11.9	21	17.2	> 50	11.9	40.2	10.9	41	20.3	> 50	12.9	30.2	8.07	16.8	9.19	> 50	–	–	13.9	36.7
Cn1c2ccc(Br)cc2c2c3c(c4c5ccccc5[nH]c4c21)C(=O)N(O)C3=O	–	–	0.237	0.902	0.04	0.182	0.244	0.705	0.226	0.469	0.212	0.498	0.0777	0.696	0.0865	0.266	0.473	1.57	0.164	0.425
C=C[C@@]1(O)CCCC2=C(C(=O)OCC)CC[C@]21C	–	–	–	> 100	–	> 100	–	–	–	> 100	–	> 100	–	> 100	–	> 100	–	> 100	–	–
COc1cccc(NC(=O)c2sc3nc4c(cc3c2N)C(=O)CCC4)c1	0.0521	0.83	0.0569	> 100	0.0953	> 100	–	–	0.0611	> 100	0.81	> 100	1.72	> 100	0.158	10.4	0.279	> 100	0.0579	12.7
O=C(Cc1ccccc1)Nn1c(-c2ccccc2)nc2ccccc2c1=O	–	> 100	–	> 100	–	> 100	–	> 100	–	–	–	> 100	–	> 100	–	> 100	–	> 100	–	> 100

Structure (SMILES)	GI50 (A498 renal) [µM]	TGI (A498 renal) [µM]	GI50 (KM12 colon) [µM]	TGI (KM12 colon) [µM]	GI50 (NCI-H460 lung) [µM]	TGI (NCI-H460 lung) [µM]	GI50 (OVCAR-4 ovarian) [µM]	TGI (OVCAR-4 ovarian) [µM]	GI50 (SK-MEL-2 melanoma) [µM]	TGI (SK-MEL-2 melanoma) [µM]	GI50 (SK-MEL-28 melanoma) [µM]	TGI (SK-MEL-28 melanoma) [µM]	GI50 (SNB-19 CNS) [µM]	TGI (SNB-19 CNS) [µM]	GI50 (U251 CNS) [µM]	TGI (U251 CNS) [µM]	GI50 (HCC-2998 colon) [µM]	TGI (HCC-2998 colon) [µM]	GI50 (SNB-75 CNS) [µM]	TGI (SNB-75 CNS) [µM]
O=C(CNc1ccccc1[N+](=O)[O-])Nn1c(-c2ccccc2)nc2ccccc2c1=O	–	81.1	–	> 10	–	45.1	–	32.1	–	–	–	59.2	–	47.8	–	40.6	–	26.3	–	41.8
Cc1cc(C)c(Cn2cnc3c(Cl)ncnc32)c(C)c1CCl	> 100	> 100	31.1	> 100	32.7	> 100	–	–	> 100	> 100	–	–	> 100	> 100	2.77	45.4	19	46.7	–	–
Cc1cn2c(/C=N/N=C(N)N)c(-c3cccs3)nc2s1	–	–	2.39	8.3	5.46	26.7	–	–	28.8	> 100	–	–	11.9	35.8	1.77	3.86	1.77	3.24	–	–
O=C1C(Cl)C(c2ccccc2O)N1n1cnc2ccccc2c1=O (configuration not stated)	–	–	–	> 100	–	> 100	–	> 100	–	> 100	–	> 100	–	> 100	–	> 100	–	> 100	–	49.6
O=S1Nc2c(Cl)cc(Cl)c3c(Cl)cc(Cl)c(c23)N1	–	74.4	–	> 100	–	–	–	91.2	–	> 100	–	> 100	–	> 100	–	69.6	–	99.8	–	55.3
SCCSCCCSCCS	–	–	–	> 100	–	> 100	–	98.2	–	–	–	> 100	–	> 100	–	> 100	–	> 100	–	> 100
COC(C(=O)NCCCCNC(=O)C(OC)c1ccccc1)c1ccccc1 (configuration not stated)	–	> 100	–	> 100	–	> 100	–	> 100	–	> 100	–	> 100	–	> 100	–	> 100	–	–	–	> 100
CCCN(CCCC(NC(C)=O)C(=O)NCc1ccccc1)C(=O)NCCCl (configuration not stated)	–	–	–	> 100	–	> 100	–	> 100	–	> 100	–	> 100	–	> 100	–	> 100	–	> 100	–	> 100
O=c1[nH]c2cc(Cl)ccc2nc1/C(=N\O)C(O)c1ccc([N+](=O)[O-])cc1 (configuration not stated)	–	> 100	–	> 100	–	> 100	–	> 100	–	> 100	–	–	–	> 100	–	> 100	–	> 100	–	> 100
COC(=O)C1[C@H](c2cc(OC)c(OC)c(OC)c2)OC(=O)C1(C(=O)OC)C(=O)c1ccc2c(c1)OCO2 (some centres not stated)	–	> 100	–	> 100	–	> 100	–	> 100	–	–	–	> 100	–	> 100	–	> 100	–	> 100	–	> 100
O=[N+]([O-])C1Cc2ccccc2OC1c1ccccc1 (configuration not stated)	–	> 100	–	> 100	–	–	–	> 100	–	–	–	> 100	–	> 100	–	> 100	–	> 100	–	55.5
CN(Cc1cc(Cl)cc(Cl)c1)CC(C(=O)c1ccccc1)c1ccccc1 (configuration not stated)	–	64.8	–	17.5	–	> 100	–	12.4	–	29.7	–	9.8	–	> 53	–	4.17	–	–	–	31.3
O=C1OC(O)C(Oc2c(Cl)cccc2Cl)=C1Cl (configuration not stated)	–	51.1	–	54.1	–	29.2	–	–	–	34.2	–	45.7	–	78.1	–	26.8	–	37.9	–	54.6
N#C/C(=C1\SC(N=Nc2ccccc2)C(=O)N1c1ccccc1)c1nc2ccccc2[nH]1 (configuration not stated)	–	> 100	–	–	–	> 100	–	> 100	–	> 100	–	> 100	–	> 100	–	> 100	–	–	–	> 100
CC(=O)On1c(-c2ccccc2-c2nc3ccccc3n2OC(C)=O)nc2ccccc21	–	–	–	> 100	–	–	–	–	–	88.6	–	> 100	–	> 100	–	> 100	–	> 100	–	> 100
CCC(CNc1cc(OC)cc2cccnc12)NC1CCCCC1 (configuration not stated)	29.7	> 100	27.6	> 100	16.8	41	6.2	> 100	–	–	25.6	64.7	89.7	> 100	43.3	> 100	19.3	41.4	21.3	> 100
O=c1c(Cl)c(Cl)c(=O)c2sc3cc(Cl)ccc3[nH]c1=2	–	> 100	–	> 100	–	> 100	–	22	–	> 100	–	> 100	–	> 100	–	> 100	–	–	–	> 100
Cc1cc(N2CCSCC2)nc(NC2CCCC(Nc3ccnc4cc(Cl)ccc34)C2)n1 (configuration not stated)	2.07	4.64	1.94	4.25	1.97	4.13	1.61	5.13	–	–	1.9	3.7	3.26	11.5	1.91	3.7	1.81	3.63	1.28	2.94
O=c1c2cccc3cccc(c4n1CCN=4)c32	–	> 100	–	> 100	–	> 100	–	> 100	–	> 100	–	> 100	–	–	–	> 100	–	–	–	> 100
CN(C)C=C1C(Cl)=C(C=O)CC(C=O)=C1Cl	–	–	–	22.1	–	39.7	–	27.9	–	36.9	–	22.6	–	27.3	–	23.7	–	28.7	–	29.5
